What follows are compounds tested on Jurkat T cells. Conditions: IL-2 production level in treated group compared to control group; 48 hours treatment, then anti-CD3/anti-CD28 12 hours.
Type: cell-based, human
Source text: Two preliminary screens were designed and performed.
To construct “blood chemical compound library for cell-based screening purposes, components such as antibodies that are difficult to distinguish due to a wide variety, and some supplements that only function at a whole organism level including fish oils and herbs were excluded. Physiological ranges of serum levels of individual blood chemicals are available in the human metabolome database (https://hmdb.ca/) and applied in the experimental design. For first screen 1a, Jurkat T cells were treated with blood chemical library for 48 hours and then activated with 2.5 μg/mL anti-CD3 and 0.5 μg/mL anti-CD28 antibodies for another 12 hours, followed by measurement of IL-2 level in medium supernatant using ELISA kit (Biolegend). For first screen 1b, 1×10^5 PD-1^+ Jurkat T cells were co-cultured with 2×10^4 H596 (PD-L1^+) cells in a well of 96-well plate for 60 hours, and then activated with 2.5 μg/mL anti-CD3 and 0.5 μg/mL anti-CD28 antibodies for another 12 hours, followed by measurement of IL-2 level in medium supernatant using ELISA kit. Please also refer to Resources Table and Table 1-2 for more details.

Compound	Relative changed percentage (%)
CC[N+](CC)(CC)CC.O=S(=O)([O-])O	−35.95%
2-DEOXY-L-RIBOSE/Deoxycytidine	36.7%
O=C(O)CCCCC1CCSS1 (racemic) [DL-6,8-Thioctic Acid]	−4.135%
O=C(O)CC(O)C(=O)O (racemic) [DL-MALIC ACID]	40.01%
CC(O)CC(=O)O (stereo not shown) [3-HYDROXYBUTYRIC ACID]	5.082%
Cl.NCCc1ccc(O)c(O)c1 [3-HYDRO[…]/dopamine, 3-HYDRO[…]]	18.78%
C[C@]12CCC(=O)C[C@@H]1CC[C@@H]1[C@@H]2CC[C@]2(C)[C@@H](O)CC[C@@H]12 [5ALPHA-DIHYDROTESTOSTERONE (DIIT)/DIIT, 5ALPHA-DIHYDROTESTOSTERONE]	−3.457%
C[C@]12CCC(=O)C=C1CC[C@@H]1[C@@H]2CC[C@@]2(C)[C@H]1CC[C@]2(O)C(=O)CO [11-DEOXYCORTISOL/Cortexolone, 11-DEOXYCORTISOL]	21.85%
CC(=O)[C@@]1(O)CC[C@H]2[C@@H]3CCC4=CC(=O)CC[C@]4(C)[C@H]3CC[C@@]21C [17A-HYDROXYPROGESTERONE]	41.36%
Cc1cc(O)cc2c1O[C@](C)(CCC[C@H](C)CCC[C@H](C)CCCC(C)C)CC2 [(+)-DELTA-TOCOPHEROL]	41.42%
Cc1c(O)cc2c(c1C)O[C@](C)(CCC[C@H](C)CCC[C@H](C)CCCC(C)C)CC2 [(+)-GAMMA-TOCOPHEROL]	1.56%
Cl.NCCc1c[nH]c2ccc(O)cc12 [-HYDROXYTRYPTAMINE HYDROCHLORIDE]	−22.39%
CC1=CCCC(C)(C)C1/C=C/C(C)=C/C=C/C(C)=C/C=C/C=C(C)/C=C/C=C(C)/C=C/C1=C(C)CCCC1(C)C (stereo not shown) [A-CAROTENE]	6.561%
CC1=C[C@H](O)CC(C)(C)C1/C=C/C(C)=C/C=C/C(C)=C/C=C/C=C(C)/C=C/C=C(C)/C=C/C1=C(C)CCCC1(C)C (stereo partly shown) [A-CRYPTOXANTHIN]	29.1%
CC(C)=O [ACETONE]	−31.07%
CC(=O)OCC[N+](C)(C)C.[Cl-] [ACE[…]]	−8.939%
Nc1ncnc2c1ncn2[C@@H]1O[C@H](CO)[C@@H](O)[C@H]1O [ADENOSINE FREE BASE]	3.704%
CCO [ALCOHOL]	9.841%
C[C@]12CCC(=O)C=C1CC[C@@H]1[C@@H]2CC[C@]2(C)C(=O)CC[C@@H]12 [ANDROSTENEDIONE]	25.93%
CC[C@H](C)[C@H](NC(=O)[C@H](Cc1ccc(O)cc1)NC(=O)[C@@H](NC(=O)[C@H](CCCNC(=N)N)NC(=O)[C@@H](N)CC(=O)O)C(C)C)C(=O)N[C@@H](Cc1cnc[nH]1)C(=O)N1CCC[C@H]1C(=O)N[C@@H](Cc1ccccc1)C(=O)O [ANGIOTENSIN II HUMAN]	17.25%
Nc1ncnc2c1ncn2[C@@H]1O[C@H](COP(=O)([O-])OP(=O)([O-])OP(=O)(O)O)[C@@H](O)[C@H]1O.[Na+].[Na+] [Adenosine 5′-Triphosphate Disodium]	−38.28%

Compound	Relative changed percentage (%)
CC/C=C\C/C=C\C/C=C\CCCCCCCC(=O)O [Alpha-linolenic acid]	−24.53%
CCCCC/C=C\C/C=C\C/C=C\C/C=C\CCCC(=O)O [Arachidonic acid]	4.583%
CC1=C(/C=C/C(C)=C/C=C/C(C)=C/C=C/C=C(C)/C=C/C=C(C)/C=C/C2=C(C)C(=O)[C@@H](O)CC2(C)C)C(C)(C)C[C@H](O)C1=O [Astaxanthin]	12.26%
CC1=C(/C=C/C(C)=C/C=C/C(C)=C/C=C/C=C(C)/C=C/C=C(C)/C=C/C2=C(C)C[C@@H](O)CC2(C)C)C(C)(C)CCC1 [BETA-CRYPTOXANTHIN]	24.88%
C[N+](C)(C)CC(=O)O [BETAINE]	−18.83%
O=C(O)CCCC[C@@H]1SC[C@@H]2NC(=O)N[C@@H]21 [BIOTIN, POWDER,, BIOTIN]	36.45%
[Cl][Cd][Cl] [CADMIUM CIILORIDE/cadmium, CADMIUM CIILORIDE]	32.11%
C=C1CC[C@H](O)C/C1=C/C=C1\CCC[C@]2(C)[C@@H]([C@H](C)CCCC(C)C)CC[C@@H]12 [CHOLECALCIFEROL CRYSTALLINE, CHOLECALCIFEROL]	25.45%
CC(C)CCC[C@@H](C)[C@H]1CC[C@H]2[C@@H]3CC=C4C[C@@H](O)CC[C@]4(C)[C@H]3CC[C@]12C [CHOLESTEROL]	−31.89%
O=S(=O)([O-])[O-].[Cu+2] [COPPER(II) SULFATE, ANHYDROUS,/copper, COPPER(II) SULFATE, ANHYDROUS]	51.65%
C[C@]12CCC(=O)C=C1CC[C@@H]1[C@@H]2C(=O)C[C@@]2(C)[C@H]1CC[C@]2(O)C(=O)CO [CORTISONE]	−12.29%
Nc1cc[nH]c(=O)n1 [CYTOSINE]	74.6228%
O=C(/C=C/c1ccc(O)c(O)c1)OCCc1ccccc1 [Caffeic acid phenethyl ester]	43.85%
Cn1c(=O)c2c(ncn2C)n(C)c1=O [Caffeine]	170.0384%
O=C([O-])[O-].[Ca+2] [Calcium Carbonate]	−8.75%
O=C([O-])CC(O)(CC(=O)[O-])C(=O)[O-].O=C([O-])CC(O)(CC(=O)[O-])C(=O)[O-].[Ca+2].[Ca+2].[Ca+2] [Calcium citrate]	−14.58%
O=C([O-])[C@@H](O)[C@@H](O)[C@H](O)[C@@H](O)C(=O)[O-].[Ca+2] [Calcium d-glucarate]	−12.14%
COc1cc(CNC(=O)CCCC/C=C/C(C)C)ccc1O [Capsaicin]	1.661%
C[N+](C)(C)CCO.[Cl-] [Choline Chloride]	−41.11%
[Cl][Cr]([Cl])[Cl] [Chromium Chloride]	−35.28%
O=C(O)CC(O)(CC(=O)O)C(=O)O [Citric Acid]	−36.8%

Compound	Relative changed percentage (%)
COC1=C(OC)C(=O)C(C/C=C(\C)CC/C=C(\C)CC/C=C(\C)CC/C=C(\C)CC/C=C(\C)CC/C=C(\C)CC/C=C(\C)CC/C=C(\C)CC/C=C(\C)CCC=C(C)C)=C(C)C1=O [CoQ-10]	26.54%
CCCCC[C@H](O)CC(=O)CCc1ccc(O)c(OC)c1 [Compound 6-gingerol, 6-gingerol]	42.62%
O=S(=O)([O-])[O-].[Cu+2] [Copper sulfate]	−26.32%
CN(CC(=O)O)C(=N)N [Creatine]	−40.99%
O=C(CO)[C@@H](O)[C@H](O)[C@H](O)CO [D(−)FRUCTOSE]	−25.52%
O=C[C@H](O)[C@@H](O)[C@H](O)[C@H](O)C(=O)O [D-Glucuronic Acid]	−45.8%
O.OC[C@H]1O[C@@H](O[C@H]2[C@H](O)[C@@H](O)C(O)O[C@@H]2CO)[C@H](O)[C@@H](O)[C@H]1O (stereo partly drawn) [D-LACTOSE MONOHYDRATE]	22.47%
N[C@H]1C(O)O[C@H](CO)[C@@H](O)[C@@H]1OS(=O)(=O)O (stereo partly drawn) [D-glucosamine 3-sulfate]	9.801%
O=P([O-])([O-])O.[K+].[K+] [Dipotassium Phosphate]	−5.393%
CC/C=C\C/C=C\C/C=C\C/C=C\C/C=C\C/C=C\CCC(=O)O [Docosahexaenoic Acid]	−29.89%
CC/C=C\C/C=C\C/C=C\C/C=C\C/C=C\CCCCCC(=O)O [Docosapentaenoic acid]	−19.39%
C=C1CC[C@H](O)C/C1=C/C=C1\CCC[C@]2(C)[C@@H]([C@H](C)/C=C/[C@H](C)C(C)C)CC[C@@H]12 [ERGOCALCIFEROL]	16.01%
C[C@]12CC[C@@H]3c4ccc(O)cc4CC[C@H]3[C@@H]1C[C@@H](O)[C@@H]2O [ESTRIOL]	2.789%
C[C@]12CC[C@@H]3c4ccc(O)cc4CC[C@H]3[C@@H]1CCC2=O [ESTRONE]	25.0199%
CCCCCCCC/C=C\CCCCCCCCCCCC(=O)O [Erucic acid]	10.71%
NS(=O)(=O)c1cc(C(=O)O)c(NCc2ccco2)cc1Cl [FUROSEMIDE/LASIX, FUROSEMIDE, reference compound]	29.01%
O=C([O-])/C=C/C(=O)[O-].[Fe+2] [Ferrous Fumarate]	6.278%
OCC(O)CO [GLYCEROL MOLECULAR BIOLOGY REAGENT, GLYCEROL]	39.3621%
Cl.N=C(N)N [GUANIDINE IIYDROCIILORIDE,, GUANIDINE IIYDROCIILORIDE]	41.83%
Nc1nc2c(ncn2[C@@H]2O[C@@H]3COP(=O)([O-])O[C@H]3[C@H]2O)c(=O)[nH]1.[Na+] [GUANOSINE 3′:5′-CYCLIC MONOPIIOSPIIATE SODIUM]	8.266%
CCCCC/C=C\C/C=C\C/C=C\CCCCC(=O)O [Gamma linolenic acid]	9.058%

Same assay, conditions: IL-2 production level in treated group compared to control group; 48 hours treatment, then anti-CD3/anti-CD28 12 hours; Hydrochloride

Compound	Relative changed percentage (%)
Cl.N[C@H]1C(O)O[C@H](CO)[C@@H](O)[C@@H]1O (stereo partly drawn) [D-(+)-Glucosamine Hydrochloride]	−38.23%

Reference: patent US20250221953A1 (The University of Chicago, priority 2022, published 2025)
